Laboratory results taken from patent US10208023B2, “Heterocyclic inhibitors of the sodium channel” (priority 2013, dated 2019).
Like-named read-outs stand apart in the source and are kept apart here.

Columns and labels:
formalin test in rats = assay: Formalin test in rats (automated flinch detection); format: in vivo; settings: rat; for Phase 1 paw flinches: Phase I (0-9 mins); for Total Phase 2 paw flinches: Phase II (10-60 mins); for Phase 2a paw flinches: Phase IIA (10-40 mins); for Phase 2b paw flinches: Phase IIB (41-60 mins)
Description: The formalin test in rats was performed as previously described (McNamara, 2007. Proc. Natl. Acad. Sci., vol 104, page 13525) using an automated flinch-detecting system (T. Yaksh, University of California at San Diego, La Jolla, Calif.). On the day of testing, a small metal band (0.5 g) was loosely placed around the right hind paw of a male Sprague-Dawley rat (average weight, ˜250 g). The rats were allowed to acclimate to a Plexiglas chamber for at least 30 min before testing. Formalin was then injected (50 μl of 2.5% formalin, diluted in saline) into the dorsal surface of the right hind paw of the rat, and the animal was put into a chamber of the automated formalin apparatus where movement of the formalin-injected paw was recorded. The number of paw flinches per minute was tallied for the next 60 minutes. The time interval phases were defined as follows: Phase I (0-9 mins), Phase II (10-60 mins), Phase IIA (10-40 mins), and Phase IIB (41-60 mins). The following compounds were administered 1 hour prior to formalin administration. Compound 52 from Table 1 was administered by oral gavage in 4% DMSO, 10% Solutol, 86% H2O. Gabapentin was administered subcutaneously in 0.9% NaCl (aq). 4.

hNav1.7 = hNav1.7 (Homo sapiens (Human), UniProt Q15858); assay: Nav1.7 potency, Patchliner automated patch clamp; format: cell-based; settings: automated patchclamp
hNav1.7, sequence (Q15858 whole entry): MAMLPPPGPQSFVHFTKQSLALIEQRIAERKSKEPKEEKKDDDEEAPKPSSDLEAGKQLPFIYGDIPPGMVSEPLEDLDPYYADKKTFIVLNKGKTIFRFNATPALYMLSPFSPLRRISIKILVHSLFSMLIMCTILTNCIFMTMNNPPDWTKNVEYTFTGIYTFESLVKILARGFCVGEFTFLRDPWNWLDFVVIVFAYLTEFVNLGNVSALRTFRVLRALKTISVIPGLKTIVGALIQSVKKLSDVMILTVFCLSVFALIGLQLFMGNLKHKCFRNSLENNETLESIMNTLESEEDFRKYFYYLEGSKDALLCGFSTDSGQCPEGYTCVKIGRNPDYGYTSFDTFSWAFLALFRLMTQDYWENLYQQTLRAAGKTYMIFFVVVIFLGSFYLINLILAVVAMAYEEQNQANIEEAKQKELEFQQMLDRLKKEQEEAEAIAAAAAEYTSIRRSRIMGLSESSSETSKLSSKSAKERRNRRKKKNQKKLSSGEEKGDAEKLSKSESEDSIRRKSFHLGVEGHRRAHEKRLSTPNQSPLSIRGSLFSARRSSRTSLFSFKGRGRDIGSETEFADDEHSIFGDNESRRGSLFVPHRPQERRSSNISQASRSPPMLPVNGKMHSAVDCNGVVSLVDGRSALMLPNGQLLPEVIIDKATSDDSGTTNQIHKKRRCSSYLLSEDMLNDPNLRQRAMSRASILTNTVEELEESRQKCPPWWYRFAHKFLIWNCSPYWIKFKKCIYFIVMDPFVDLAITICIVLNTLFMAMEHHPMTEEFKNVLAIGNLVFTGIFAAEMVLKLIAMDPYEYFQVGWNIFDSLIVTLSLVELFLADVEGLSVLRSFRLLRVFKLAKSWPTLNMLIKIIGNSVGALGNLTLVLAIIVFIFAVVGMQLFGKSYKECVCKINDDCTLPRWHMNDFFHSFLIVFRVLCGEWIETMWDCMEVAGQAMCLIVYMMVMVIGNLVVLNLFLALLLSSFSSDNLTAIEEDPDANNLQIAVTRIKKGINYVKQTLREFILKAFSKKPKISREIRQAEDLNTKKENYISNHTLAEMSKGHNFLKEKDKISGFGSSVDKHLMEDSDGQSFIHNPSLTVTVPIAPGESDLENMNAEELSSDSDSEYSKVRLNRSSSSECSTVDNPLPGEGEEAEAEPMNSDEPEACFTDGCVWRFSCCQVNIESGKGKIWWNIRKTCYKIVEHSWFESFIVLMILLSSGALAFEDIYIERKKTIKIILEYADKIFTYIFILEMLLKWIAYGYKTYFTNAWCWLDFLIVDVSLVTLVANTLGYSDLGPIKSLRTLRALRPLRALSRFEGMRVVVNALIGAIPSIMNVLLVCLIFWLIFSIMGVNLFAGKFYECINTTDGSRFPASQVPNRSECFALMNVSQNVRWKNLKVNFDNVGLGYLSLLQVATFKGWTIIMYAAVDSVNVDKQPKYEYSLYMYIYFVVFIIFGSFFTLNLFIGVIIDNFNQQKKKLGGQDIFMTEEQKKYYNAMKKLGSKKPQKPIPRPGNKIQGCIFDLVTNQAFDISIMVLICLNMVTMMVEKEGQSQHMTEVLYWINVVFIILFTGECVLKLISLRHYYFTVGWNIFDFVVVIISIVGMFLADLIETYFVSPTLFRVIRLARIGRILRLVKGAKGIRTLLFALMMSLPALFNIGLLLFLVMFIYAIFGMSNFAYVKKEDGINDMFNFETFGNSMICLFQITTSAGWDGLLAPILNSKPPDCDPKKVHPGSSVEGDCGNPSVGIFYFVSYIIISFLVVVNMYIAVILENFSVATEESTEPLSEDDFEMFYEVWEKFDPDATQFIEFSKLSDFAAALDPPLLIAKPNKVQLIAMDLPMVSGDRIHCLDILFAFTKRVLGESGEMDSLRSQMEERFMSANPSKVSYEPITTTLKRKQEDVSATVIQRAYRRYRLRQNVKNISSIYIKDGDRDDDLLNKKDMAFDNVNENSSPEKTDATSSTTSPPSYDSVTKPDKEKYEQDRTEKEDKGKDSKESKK
hNav1.7, sequence (Q07699 19-218 partner): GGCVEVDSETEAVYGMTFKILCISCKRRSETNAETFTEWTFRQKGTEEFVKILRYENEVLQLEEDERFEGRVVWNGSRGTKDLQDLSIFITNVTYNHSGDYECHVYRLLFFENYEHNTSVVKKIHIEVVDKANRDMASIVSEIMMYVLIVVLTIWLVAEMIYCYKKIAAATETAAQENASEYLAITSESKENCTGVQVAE
Description: The generation of a HEK 293F cell line stably expressing human Nav1.7/Navβ1 was achieved by co-transfecting human SCN9A and human SCN1B cDNAs, subcloned into plasmid vectors, utilizing standard transfection techniques. Clones were selected using appropriate selection agents (0.3 mg/mL Zeocin and 0.8 mg/mL Geneticin) and maintained in Dulbecco's Modified Eagle medium, 10% fetal bovine serum, 1% non-essential amino acids to ˜80% confluence at 37° C. in a humidified incubator with 95% atmosphere and 5% CO2.
In some cases, the potency of compounds was measured using either the Patchliner automated patch clamp platform (Nanion) or manual patch clamp techniques. Both approaches allowed the compounds to be characterized based upon the ability of a compound to modulate use- and/or state-dependence. The potency data is tabulated in Table 3 and is represented by eight data fields. The first four fields represent potency data measured with the Patchliner automated platform under varying use- and state-dependent electrophysiology protocols similar to the Patch express protocols detailed above. The first data column describes the potency of compounds when the Nav1.7 channel is being repetitively activated at a 7 Hz hyperpolarization frequency (Table 3: hNav1.7: IC50 of inward current block at 7 Hz, Automated patchclamp). The second data column represents the potency at which 50% of the initial hyperpolarization pulse is inhibited by the compounds (Table 3: hNav1.7: IC50 of P1 block, Automated patchclamp). The third data column details the potency of compounds in their ability to block 50% of Nav1.7 channels when these channels are induced into the slow inactivated state (Table 3: hNav1.7: IC50 of slow inactivation block, Automated patchclamp). […] The next three data fields describe the data generated from manual patchclamp electrophysiology measurements using similar methods to those employed for automated patchclamp studies. […] The last column characterizes the state-dependence of compound inhibition. […]

[1] = 3 mg/kg oral gavage 1 hour prior to formalin
[2] = 10 mg/kg oral gavage 1 hour prior to formalin
[3] = 30 mg/kg oral gavage 1 hour prior to formalin
[4] = 100 mg/kg SC 1 hour prior to formalin

NC1(c2nc3cc(C(F)(F)F)cc(C(F)(F)F)c3[nH]2)Cc2ccccc2C1 [Compound 52, 2-(4,6-bis(trifluoromethyl)-1H-benzo[d]imidazol-2-yl)-2,3-dihydro-1H-inden-2-amine]
Phase 1 paw flinches (formalin test in rats; [1]): 345 ± 75
Total Phase 2 paw flinches (formalin test in rats; [1]): 1365 ± 174
Phase 2a paw flinches (formalin test in rats; [1]): 988 ± 139
Phase 2b paw flinches (formalin test in rats; [1]): 377 ± 79
Phase 1 paw flinches (formalin test in rats; [2]): 315 ± 58
Total Phase 2 paw flinches (formalin test in rats; [2]): 962 ± 189
Phase 2a paw flinches (formalin test in rats; [2]): 758 ± 199
Phase 2b paw flinches (formalin test in rats; [2]): 204 ± 66
Phase 1 paw flinches (formalin test in rats; [3]): 333 ± 75
Total Phase 2 paw flinches (formalin test in rats; [3]): 853 ± 259
Phase 2a paw flinches (formalin test in rats; [3]): 706 ± 261
Phase 2b paw flinches (formalin test in rats; [3]): 147 ± 101

N[C@H](Cc1cccc(C(F)(F)F)c1)C(=O)NCc1nc2c(C(F)(F)F)cc(C(F)(F)F)cc2[nH]1 [Compound 75, (R)-2-amino-N-((4,6-bis(trifluoromethyl)-1H-benzo[d]imidazol-2-yl)methyl)-3-(3-(trifluoromethyl)phenyl) propanamide]
IC50 (hNav1.7; 7 Hz, read-out: Nav1.7 IC50 INWARD CURRENT BLOCK (nM) (7 Hz, Automated Patchclamp)): 15000 nM
IC50 (hNav1.7; initial pulse (P1), read-out: Nav1.7 IC50 P1 BLOCK (nM) (Automated Patchclamp)): 15000 nM
IC50 (hNav1.7; slow inactivated state, read-out: Nav1.7 IC50 SLOW INACTIVATION BLOCK (nM) (Automated Patchclamp)): 15000 nM

NCC1(CC(=O)O)CCCCC1 [Gabapentin, reference compound]
Phase 1 paw flinches (formalin test in rats; [4]): 320 ± 58
Total Phase 2 paw flinches (formalin test in rats; [4]): 562 ± 213
Phase 2a paw flinches (formalin test in rats; [4]): 486 ± 202
Phase 2b paw flinches (formalin test in rats; [4]): 77 ± 47
